Reference: patent publication US20240208989A1, “NOVEL 12-EPI-MUTILIN COMPOUNDS AND USES THEREOF” (NABRIVA THERAPEUTICS GMBH, priority 2021, published 2024)
In brackets after ≈: the same amount, converted by molar mass. Structures can show the parent of a compound that is named as a salt. Where two headings read alike, the source gives them in different places.

Tests used:
[1] = test system: Streptococcus agalactiae lsa(E); experiment: MIC by standard broth microdilution (CLSI), CAMHB; format: cell-based; conditions: for MIC: Streptococcus agalactiae, read-out: MIC Streptococcus agalactiae lsa(E) (n = 2), Lefamulin resistant, n = 2 isolates
Experimental: (§1) The in vitro activity against bacteria including isolates that are resistant to Lefamulin was determined by standard broth microdilution according to the Clinical and Laboratory Standards Institute CLSI document (Performance Standards for Antimicrobial Susceptibility Testing) M100Ed29E (2019) and (Methods for Dilution Antimicrobial Susceptibility Test for Bacteria That Grow Aerobically) M07Ed11 (2018) or other years' versions thereof. The data were obtained using cation-adjusted Mueller Hinton broth medium (CAMHB).

[2] = test system: Streptococcus pneumoniae ATCC49619; experiment: MIC by standard broth microdilution (CLSI), CAMHB; format: cell-based; conditions: for MIC: Streptococcus pneumoniae, ATCC49619
Experimental: as §1

[3] = test system: Staphylococcus aureus cfr (+); experiment: MIC by standard broth microdilution (CLSI), CAMHB; format: cell-based; conditions: for MIC: Staphylococcus aureus, read-out: MIC Staphylococcus aureus cfr (+) (n = 2), Lefamulin resistant, n = 2 isolates
Experimental: as §1

[4] = test system: Staphylococcus aureus vga(A) (+); experiment: MIC by standard broth microdilution (CLSI), CAMHB; format: cell-based; conditions: Lefamulin resistant; for MIC: Staphylococcus aureus
Experimental: as §1

[5] = test system: Staphylococcus aureus ATCC49951; experiment: MIC by standard broth microdilution (CLSI), CAMHB; format: cell-based; conditions: for MIC: Staphylococcus aureus, ATCC49951
Experimental: as §1

Borreliella spp. = experiment: MIC by broth microdilution against Borreliella strains; format: cell-based, Borreliella burgdorferi (n=5) and Borreliella garinii (n=1); conditions: BSK II medium, n = 6 isolates
Experimental: Minimal inhibitory concentrations (MIC) were determined against five (n=5) Borreliella burgdorferi isolates (ATCC 51990, 55131, 35211, 35210, 53899) and one (n=1) Borreliella garinii isolate (ATCC 51991) by broth microdilution technique ([…]., Jorgensen, J. H., Barbour, A. G. In vitro antimicrobial susceptibility testing of Boreliella burgdorferi: a microdilution MIC method and time-kill studies. […] Feng, J., Wang, T., Shi, W., et al. Identification of novel activity against Boreliella burgdorferi persisters using an FDA approved drug library. […] (2018) Methods for dilution antimicrobial susceptibility tests for bacteria that grow aerobically: Eleventh edition. […]; CLSI. (2021) Performance Standards for Antimicrobial Susceptibility Testing: Thirty-first Edition. M100-S31). Briefly, Borreliella spp. were grown at 36° C. under microaerophilic conditions in BSK II medium until the logarithmic or stationary growth phase was reached. The growth phase was determined by semiquantitative measurement of active and dormant cells by fluorescence microscopy of cells stained with the fluorescent dyes SYBR Green I and propidium iodide. An inoculum of 10^5-10^6 spirochetes/mL was used to inoculate broth microdilution plates containing serially 2-fold diluted test compounds.

Cutibacterium avidum = experiment: MIC by standard agar dilution (CLSI M11), anaerobic; format: cell-based; conditions: Wilkins-Chalgren-Agar, 48 h, 37° C., read-out: MIC Cutibacterium avidum (n = 5)
Cutibacterium acnes = experiment: as above; format: cell-based; conditions: Wilkins-Chalgren-Agar, 48 h, 37° C., read-out: MIC Cutibacterium acnes (n = 5)
Cutibacterium granulosum = experiment: as above; format: cell-based; conditions: Wilkins-Chalgren-Agar, 48 h, 37° C., read-out: MIC Cutibacterium granulosum (n = 7)
[6] = Cytotoxicity, human hepatocyte assay (ATPlite); format: cell-based; conditions: primary human hepatocytes
Experimental: The cytotoxicity for compounds of the present invention was determined using a human hepatocyte assay. Primary human hepatocytes were incubated with various test compound concentrations (in triplicate) for 2 hours. Viability of cells is then measured by the luminescence ATPlite detection assay system according to the manufacturer (Perkin Elmer). ATP is a marker for cell viability because it is present in all metabolically active cells and the concentration declines very rapidly when the cells undergo necrosis or apoptosis. The ATPlite assay system is based on the production of light caused by the reaction of ATP with added luciferase and D-luciferin, where the emitted light is proportional to the ATP concentration (within certain limits).

[7] = Lefamulin resistant, n = 2 isolates
[8] = 192 h, stationary growth phase, read after 8 days, read-out: MIC (μg/mL) for Stationary Growth Phase Culture (n = 6)
[9] = logarithmic growth phase, read after 5 or 6 days, read-out: MIC (μg/mL) for Logarithmic Growth Phase Culture (n = 6)

Row | Compound | MIC (Borreliella spp.; [8]) [µg/mL] | MIC (Borreliella spp.; [9]) [µg/mL] | MIC (Cutibacterium avidum) [µg/mL] | MIC (Cutibacterium acnes) [µg/mL] | MIC (Cutibacterium granulosum) [µg/mL] | also measured
1 | 12-epi-12-desvinyl-14-O-[(azepan-4-ylsulfanyl)-acetyl]-12-((E)-2-pyridin-3-yl-ethenyl) mutilin hydrochloride [Example 154 of WO 2015/110481, reference compound] |  |  |  |  |  | MIC Streptococcus agalactiae lsa(E) (n = 2) [1, 7]: 4 to 8 µg/mL; MIC Streptococcus pneumoniae ATCC49619 [2]: ≤0.03 µg/mL; MIC Staphylococcus aureus cfr (+) (n = 2) [3, 7]: 0.5 to 4 µg/mL; MIC Staphylococcus aureus vga(A) (+) [4]: 2 to 4 µg/mL; MIC Staphylococcus aureus ATCC49951 [5]: ≤0.03 µg/mL
2 | CC1(C)S[C@@H]2[C@H](NC(=O)[C@H](N)c3ccc(O)cc3)C(=O)N2[C@H]1C(=O)O [Amoxicillin] | 0.03 to 0.12 (≈ 0.0821 to 0.328 µM) | 0.03 to 0.12 (≈ 0.0821 to 0.328 µM) |  |  |  | 
3 | CC[C@H]1OC(=O)[C@H](C)[C@@H](O[C@H]2C[C@@](C)(OC)[C@@H](O)[C@H](C)O2)[C@H](C)[C@@H](O[C@@H]2O[C@H](C)C[C@H](N(C)C)[C@H]2O)[C@](C)(O)C[C@@H](C)CN(C)[C@H](C)[C@@H](O)[C@]1(C)O [Azithromycin] | 0.001 to 0.004 (≈ 0.00134 to 0.00534 µM) | 0.001 to 0.004 (≈ 0.00134 to 0.00534 µM) |  |  |  | 
4 | Cc1nccnc1/C=C/[C@@]1(C)C[C@@H](OC(=O)CSC2CCNCC2)[C@]2(C)[C@H](C)CC[C@]3(CCC(=O)[C@H]32)[C@@H](C)[C@@H]1O [BC-9842, 12-epi-12-desvinyl-14-O-[(Piperidin-4-ylsulfanyl]-acetyl]-12-[2-(3-methyl-pyrazin-2-yl)-ethenyl]-mutilin] | 0.001 to 0.004 (≈ 0.00175 to 0.00702 µM) | 0.001 to 0.004 (≈ 0.00175 to 0.00702 µM) | 0.015 to 0.25 (≈ 0.0263 to 0.439 µM) | 0.03 to 0.05 (≈ 0.0526 to 0.0877 µM) | 0.015 to 0.12 (≈ 0.0263 to 0.211 µM) | 
5 | CO/N=C(\C(=O)N[C@@H]1C(=O)N2C(C(=O)O)=C(CSc3nc(=O)c(=O)[nH]n3C)CS[C@H]12)c1csc(N)n1 [Ceftriaxone] | 0.004 to 0.03 (≈ 0.00721 to 0.0541 µM) | 0.004 to 0.016 (≈ 0.00721 to 0.0289 µM) |  |  |  | 
6 | CO/N=C(\C(=O)N[C@@H]1C(=O)N2C(C(=O)O)=C(COC(N)=O)CS[C@H]12)c1ccco1 [Cefuroxime] | 0.016 to 0.25 (≈ 0.0377 to 0.589 µM) | 0.016 to 0.25 (≈ 0.0377 to 0.589 µM) |  |  |  | 
7 | C[C@H]1c2cccc(O)c2C(=O)C2=C(O)[C@]3(O)C(=O)C(C(N)=O)=C(O)[C@@H](N(C)C)[C@@H]3[C@@H](O)[C@@H]21 [Doxycycline] | 0.03 to 0.5 (≈ 0.0675 to 1.13 µM) | 0.03 to 0.5 (≈ 0.0675 to 1.13 µM) |  |  |  | 
8 | CC[C@H]1OC(=O)[C@H](C)[C@@H](O[C@H]2C[C@@](C)(OC)[C@@H](O)[C@H](C)O2)[C@H](C)[C@@H](O[C@@H]2O[C@H](C)C[C@H](N(C)C)[C@H]2O)[C@](C)(O)C[C@@H](C)C(=O)[C@H](C)[C@@H](O)[C@]1(C)O [Erythromycin] | 0.001 to 0.004 (≈ 0.00136 to 0.00545 µM) | 0.002 to 0.016 (≈ 0.00273 to 0.0218 µM) |  |  |  | 
9 | C[C@@H]1CC[C@@]23CCC(=O)[C@H]2[C@]1(C)[C@H](OC(=O)CS[C@H]1CO[C@H]2[C@@H]1OC[C@@H]2N)C[C@](C)(/C=C/c1cccnc1)[C@@H](O)[C@@H]3C [Example 1, 12-epi-12-Desvinyl-14-O-{[(3S,3aR,6S,6aS)-3-amino-2,3,3a,5,6,6a-hexahydrofuro[3,2-b]furan-6-yl]sulfanylacetyl}-12-[(E)-2-(3-pyridyl)-ethenyl]-mutilin dihydrochloride] | 0.001 to 0.004 | 0.001 to 0.002 | 0.015 to 0.06 | 0.015 to 0.12 | 0.015 to 0.03 | IC50 at 2 h [6]: 215 µM; MIC [1]: 0.06 to 0.12 µg/mL; MIC [2]: ≤ 0.03 µg/mL; MIC [3]: 0.12 to 0.5 µg/mL; MIC [4]: 0.5 µg/mL; MIC [5]: ≤ 0.03 µg/mL
10 | C[C@@H]1CC[C@@]23CCC(=O)[C@H]2[C@]1(C)[C@H](OC(=O)CS[C@H]1CO[C@H]2[C@@H]1OC[C@@H]2N)C[C@](C)(/C=C/c1cncnc1)[C@@H](O)[C@@H]3C [Example 2, 12-epi-12-Desvinyl-14-O-{[(3S,3aR,6S,6aS)-3-amino-2,3,3a,5,6,6a-hexahydrofuro[3,2-b]furan-6-yl]sulfanylacetyl}-12-[(E)-2-(pyrimidin-5-yl)-ethenyl]-mutilin dihydrochloride] | 0.001 to 0.004 | 0.001 to 0.002 | 0.015 to 0.06 | 0.015 to 0.12 | 0.015 to 0.03 | IC50 at 2 h [6]: > 609 µM; MIC [1]: 0.03 to 0.06 µg/mL; MIC [2]: ≤ 0.03 µg/mL; MIC [3]: 0.12 to 1 µg/mL; MIC [4]: 1 µg/mL; MIC [5]: ≤ 0.03 µg/mL
11 | Cc1nccnc1/C=C/[C@@]1(C)C[C@@H](OC(=O)CS[C@H]2CO[C@H]3[C@@H]2OC[C@@H]3N)[C@]2(C)[C@H](C)CC[C@]3(CCC(=O)[C@H]32)[C@@H](C)[C@@H]1O [Example 3, 12-epi-12-Desvinyl-14-O-{[(3S,3aR,6S,6aS)-3-amino-2,3,3a,5,6,6a-hexahydrofuro[3,2-b]furan-6-yl]sulfanylacetyl}-12-[(E)-2-(3-methyl-pyrazin-2-yl)-ethenyl]-mutilin dihydrochloride] | 0.001 to 0.008 | 0.001 to 0.004 | 0.03 to 0.25 | 0.03 to 0.5 | 0.015 to 0.12 | IC50 at 2 h [6]: > 433 µM; MIC [1]: 0.5 to 1 µg/mL; MIC [2]: ≤ 0.03 µg/mL; MIC [3]: 1 µg/mL; MIC [4]: 1 µg/mL; MIC [5]: ≤ 0.03 µg/mL
12 | C=C[C@]1(C)C[C@@H](OC(=O)CS[C@@H]2CC[C@@H](N)C[C@H]2O)[C@]2(C)[C@H](C)CC[C@]3(CCC(=O)[C@H]32)[C@@H](C)[C@@H]1O [Lefamulin, reference compound] | 0.001 to 0.008 (≈ 0.00197 to 0.0158 µM) | 0.001 to 0.008 (≈ 0.00197 to 0.0158 µM) | 0.03 to 0.06 (≈ 0.0591 to 0.118 µM) | 0.03 to 0.5 (≈ 0.0591 to 0.985 µM) | 0.015 to 0.25 (≈ 0.0295 to 0.492 µM) | MIC [1]: 16 µg/mL (≈ 31.5 µM); MIC [2]: ≤ 0.03 µg/mL; MIC [3]: 16 µg/mL (≈ 31.5 µM); MIC [4]: 8 µg/mL (≈ 15.8 µM); MIC [5]: ≤ 0.03 µg/mL
13 | C[C@H]1COc2c(N3CCN(C)CC3)c(F)cc3c(=O)c(C(=O)O)cn1c23 [Levofloxacin] | 2 to 8 (≈ 5.53 to 22.1 µM) | 2 to 4 (≈ 5.53 to 11.1 µM) |  |  |  | 
14 | C=C[C@]1(C)C[C@@H](OC(=O)CO)[C@]2(C)[C@H](C)CC[C@]3(CCC(=O)[C@H]32)[C@@H](C)[C@@H]1O [Pleuromutilin] | 0.12 to 2 (≈ 0.317 to 5.28 µM) | 0.12 to 1 (≈ 0.317 to 2.64 µM) |  |  |  | 
